From ChEMBL document CHEMBL4765354, “Structure guided design of potent indole-based ATX inhibitors bearing hydrazone moiety with tumor suppression effects” (Eur J Med Chem, 2020) come the findings set out here.

Each structure is given as a SMILES string.

The subject of assay [1] is A549. Put plainly: Antiproliferative activity against human A549 cells measured after 72 hrs by MTT assay. Type of assay: functional, cell-based. To be noted: A549, 72 h.
The subject of assay [2] is NCI-H2228. Put plainly: Antiproliferative activity against human NCI-H2228 cells measured after 72 hrs by MTT assay. Type of assay: functional, cell-based. To be noted: NCI-H2228, 72 h.
Assay [3] has as its system MDA-MB-231. Put plainly: Antiproliferative activity against human MDA-MB-231 cells measured after 72 hrs by MTT assay. Type of assay: functional, cell-based. To be noted: MDA-MB-231, 72 h.
In assay [4] the test system is MCF7. Put plainly: Antiproliferative activity against human MCF7 cells measured after 72 hrs by MTT assay. Type of assay: functional, cell-based. Conditions: MCF7, 72 h.
Assay [5] concerns the target Autotaxin (Homo sapiens, UniProt Q13822). Put plainly: Inhibition of human C-terminal His6-tagged ATX beta expressed in Sf9 insect cells using FS-3 as substrate preincubated for 45 mins followed by substrate addition and measured at 1 min interval for 30 mins by fluorescence assay.

With `O=C(CCN1CCN(C(=O)OCc2cc(Cl)cc(Cl)c2)CC1)c1ccc2[nH]c(=O)oc2c1`, the IC50 was determined as 8.21 µM in assay [1], 11.3 µM in assay [2], 4.17 µM in assay [3] and 2.31 µM in assay [4].

`CCn1cc(/C(=N/Nc2nc(-c3ccc(OC)cc3)c(C#N)s2)C(F)(F)F)c2cc(-c3nc(CN4CCOCC4)cs3)ccc21`: the IC50 was greater than 15 µM in assay [1], 2.06 µM in assay [5] and 5.12 µM in assay [3].

Consider `CCn1cc(/C(=N/Nc2nc(-c3ccc(F)cc3)c(C#N)s2)C(F)(F)F)c2cc(-c3nc(CN4CCC(O)CC4)cs3)ccc21`, for which the IC50 in assay [1] was found to be 10.3 µM; in assay [5] it was 2.05 µM; in assay [4], 5.13 µM.

On to `CCN1CCN(Cc2csc(-c3ccc4c(c3)c(/C(=N/Nc3nc(-c5ccc(Cl)cc5)c(C#N)s3)C(F)(F)F)cn4CC)n2)CC1`, for which the IC50 in assay [1] is 13.8 µM; in assay [5] it was 2.13 µM; in assay [2], greater than 15 µM; in assay [3] it was 3.21 µM; in assay [4], 5.73 µM.

As for `CCn1cc(/C(=N/Nc2nc(-c3ccc(OC)cc3)c(C#N)s2)C(F)(F)F)c2cc(-c3nc(CN4CCC(C)CC4)cs3)ccc21`, the IC50 is 9.81 µM in assay [1], greater than 10 µM in assay [5] and 2.23 µM in assay [4].

Turning to `CCn1cc(/C(=N/Nc2nc3ccccc3s2)C(F)(F)F)c2cc(-c3nc(CN4CCCC4)cs3)ccc21`, the half-inhibitory concentration (IC50) in assay [1] amounted to 8.01 µM; in assay [5] it was 0.126 µM; in assay [2], 6.31 µM; in assay [4], 1.79 µM.

For `CCN1CCN(Cc2csc(-c3ccc4c(c3)c(/C(=N/Nc3nc(-c5ccc(F)cc5)c(C#N)s3)C(F)(F)F)cn4CC)n2)CC1`, the IC50 was greater than 15 µM in assay [1], 1.54 µM in assay [5], 2.69 µM in assay [3] and 4.33 µM in assay [4].

Take `CCn1cc(/C(=N/Nc2nc(-c3ccc(F)cc3)c(C#N)s2)C(F)(F)F)c2cc(-c3nc(CN4CCN(CCO)CC4)cs3)ccc21`: the IC50 in assay [1] was 7.31 µM; in assay [5] it was 0.78 µM; in assay [2] it was greater than 15 µM; in assay [4], 3.25 µM.

Regarding `CCn1cc(/C(=N/Nc2nc(-c3ccc(OC)cc3)c(C#N)s2)C(F)(F)F)c2cc(-c3nc(CN4CCC(O)CC4)cs3)ccc21`, the IC50 in assay [5] was 0.56 µM; in assay [2], greater than 15 µM; in assay [3] it was 3.98 µM; in assay [4] it was 1.37 µM.

For the compound `CCn1cc(/C(=N/Nc2nc(-c3ccc(Cl)cc3)c(C#N)s2)C(F)(F)F)c2cc(-c3nc(CN4CCC(O)CC4)cs3)ccc21`, the half-maximal inhibitory concentration (IC50) in assay [1] is greater than 15 µM; in assay [5], 1.43 µM; in assay [3], 2.33 µM.

In assay [5], `CCn1cc(/C(=N/Nc2nc(-c3ccc(F)cc3)c(C#N)s2)C(F)(F)F)c2cc(-c3nc(CN4CCC[C@H]4CO)cs3)ccc21` yielded an IC50 of 5.27 µM.

With `Cc1[nH]c2cc(F)c(N3CCC(C(=O)N4CCOCC4)CC3)cc2c1/C=N/Nc1nc(-c2ccc(F)cc2)c(C#N)s1`, the concentration for half-maximal inhibition (IC50) in assay [5] is 0.104 µM; in assay [2], greater than 15 µM; in assay [3] it was 3.67 µM; in assay [4], 1.67 µM.

On to `CCN1CCN(Cc2csc(-c3ccc4c(c3)c(/C(=N/Nc3nc(-c5ccc(OC)cc5)c(C#N)s3)C(F)(F)F)cn4CC)n2)CC1`, for which the IC50 is greater than 15 µM in assay [1], 0.93 µM in assay [5] and 4.67 µM in assay [4].

On to `CCn1cc(/C(=N/Nc2nc(-c3ccc(OC)cc3)c(C#N)s2)C(F)(F)F)c2cc(-c3nc(CN4CCC[C@H]4C(=O)O)cs3)ccc21`, for which the IC50 is greater than 15 µM in assay [1], 0.98 µM in assay [5], 1.23 µM in assay [3] and 1.51 µM in assay [4].

With `CCn1cc(/C(=N/Nc2nc(-c3ccc(Cl)cc3)c(C#N)s2)C(F)(F)F)c2cc(-c3nc(CN4CCC[C@H]4CO)cs3)ccc21`, the results for the half-inhibitory concentration (IC50) in assay [5], in assay [2] and in assay [3] were 1.41 µM, greater than 15 µM and 1.21 µM, respectively.

In the case of `CCn1cc(/C(=N/Nc2nc3ccccc3s2)C(F)(F)F)c2cc(-c3nc(CN4CCOCC4)cs3)ccc21`, the IC50 in assay [1] came out at 9.37 µM; in assay [5], 0.201 µM; in assay [3], 7.3 µM; in assay [4], 2.73 µM.

With `CCn1cc(/C(=N/Nc2nc(-c3ccc(Cl)cc3)c(C#N)s2)C(F)(F)F)c2cc(-c3nc(CN4CCCC4)cs3)ccc21`, the IC50 is greater than 15 µM in assay [1], 2.45 µM in assay [5], 1.56 µM in assay [3] and 5.03 µM in assay [4].

For the compound `CCn1cc(/C(=N/Nc2nc3ccccc3s2)C(F)(F)F)c2cc(-c3nc(CN4CCC[C@H]4C(=O)O)cs3)ccc21`, the IC50 is greater than 15 µM in assay [1], 0.072 µM in assay [5], 3.49 µM in assay [3] and 1.92 µM in assay [4].

As to `CCN1CCN(C(=O)C2CCN(c3cc4c(/C=N/Nc5nc(-c6ccc(F)cc6)c(C#N)s5)c(C)[nH]c4cc3F)CC2)CC1`, the results for the IC50 in assay [1], in assay [5] and in assay [3] were greater than 15 µM, 0.159 µM and 1.14 µM, respectively.

Turning to `CCn1cc(/C(=N/Nc2nc(-c3ccc(OC)cc3)c(C#N)s2)C(F)(F)F)c2cc(-c3nc(CN4CCN(C)CC4)cs3)ccc21`, the IC50 in assay [1] came out at 4.93 µM; in assay [5], 1.85 µM; in assay [2], 2.6 µM; in assay [3] it was 8.21 µM; in assay [4], 2.79 µM.

Turning to `CCn1cc(/C(=N/Nc2nc(-c3ccc(F)cc3)c(C#N)s2)C(F)(F)F)c2cc(-c3nc(CN4CCOCC4)cs3)ccc21`, the IC50 in assay [1] is greater than 15 µM; in assay [5], 2.37 µM; in assay [2], greater than 15 µM; in assay [3], 4.97 µM; in assay [4], 2.31 µM.

Regarding `CCn1cc(/C(=N/Nc2nc(-c3ccc(F)cc3)c(C#N)s2)C(F)(F)F)c2cc(-c3nc(CN4CC(O)C4)cs3)ccc21`, the IC50 came to 6.92 µM in assay [1], 1.25 µM in assay [5] and 1.79 µM in assay [4].

For the compound `CCn1cc(/C(=N/Nc2nc(-c3ccc(F)cc3)c(C#N)s2)C(F)(F)F)c2cc(-c3nc(CN4CCN(C)CC4)cs3)ccc21`, the figures for the IC50 in assay [1], in assay [5] and in assay [4] were 11.7 µM, 3.02 µM and 2.1 µM, respectively.

Regarding `CCn1cc(/C(=N/Nc2nc(-c3ccc(OC)cc3)c(C#N)s2)C(F)(F)F)c2cc(-c3nc(CN4CCC[C@H]4CO)cs3)ccc21`, the IC50 in assay [1] was found to be 10.9 µM; in assay [5] it was 0.87 µM; in assay [4] it was 4.26 µM.

Consider `CCn1cc(/C(=N/Nc2nc(-c3ccc(F)cc3)c(C#N)s2)C(F)(F)F)c2cc(-c3nc(CN4CCCCC4)cs3)ccc21`, for which the IC50 in assay [1] is greater than 15 µM; in assay [5] it was 3.43 µM; in assay [2], 5.71 µM; in assay [3] it was 5.46 µM; in assay [4], 1.57 µM.

In the case of `CCn1cc(/C(=N/Nc2nc3ccccc3s2)C(F)(F)F)c2cc(-c3nc(CN4CCC(C)CC4)cs3)ccc21`, the half-maximal inhibitory concentration (IC50) was 0.337 µM in assay [5], greater than 15 µM in assay [2] and 2.08 µM in assay [3].

On to `Cc1[nH]c2cc(F)c(N3CCC(C(=O)N4CCCC4)CC3)cc2c1/C(=N/Nc1nc(-c2ccc(F)cc2)c(C#N)s1)C(F)(F)F`, for which the IC50 in assay [1] is 9.07 µM; in assay [5] it was 0.057 µM; in assay [2] it was greater than 15 µM; in assay [4], 0.75 µM.

As for `CCn1cc(/C(=N/Nc2nc(-c3ccc(OC)cc3)c(C#N)s2)C(F)(F)F)c2cc(-c3nc(CN4CCCC4)cs3)ccc21`, the IC50 was 13.7 µM in assay [1], 3.05 µM in assay [5], greater than 15 µM in assay [2] and 5.17 µM in assay [3].

Take `CCn1cc(/C(=N/Nc2nc(-c3ccc(OC)cc3)c(C#N)s2)C(F)(F)F)c2cc(-c3nc(CN4CC(O)C4)cs3)ccc21`: the IC50 in assay [1] was greater than 15 µM; in assay [5] it was 0.91 µM; in assay [2], greater than 15 µM; in assay [3], 2.43 µM; in assay [4], greater than 15 µM.

As for `CCn1cc(/C(=N/Nc2nc(-c3ccc(Cl)cc3)c(C#N)s2)C(F)(F)F)c2cc(-c3nc(CN4CCCCC4)cs3)ccc21`, in assay [5], the IC50 worked out at 6.07 µM.

With `CCn1cc(/C(=N/Nc2nc(-c3ccc(F)cc3)c(C#N)s2)C(F)(F)F)c2cc(-c3nc(CN4CCC[C@H]4C(=O)O)cs3)ccc21`, the IC50 in assay [1] is greater than 15 µM; in assay [5], 0.61 µM; in assay [2] it was greater than 15 µM; in assay [3], 1.27 µM; in assay [4], 0.65 µM.

As to `CCn1cc(/C(=N/Nc2nc(-c3ccc(Cl)cc3)c(C#N)s2)C(F)(F)F)c2cc(-c3nc(CN4CCN(C)CC4)cs3)ccc21`, the half-maximal inhibitory concentration (IC50) in assay [5] was 1.21 µM; in assay [2] it was greater than 15 µM; in assay [3] it was 1.56 µM.

For `CCn1cc(/C(=N/Nc2nc(-c3ccc(Cl)cc3)c(C#N)s2)C(F)(F)F)c2cc(-c3nc(CN4CC(O)C4)cs3)ccc21`, the IC50 in assay [5] was 2.46 µM; in assay [2] it was greater than 15 µM; in assay [3], 3.41 µM; in assay [4], greater than 15 µM.

In assay [5], `CCn1cc(/C(=N/Nc2nc(-c3ccc(Cl)cc3)c(C#N)s2)C(F)(F)F)c2cc(-c3nc(CN4CCC(C)CC4)cs3)ccc21` gave a half-inhibitory concentration (IC50) of 4.21 µM.

In the case of `CCn1cc(/C(=N/Nc2nc3ccccc3s2)C(F)(F)F)c2cc(-c3nc(CN4CCCCC4)cs3)ccc21`, the IC50 in assay [1] was greater than 15 µM; in assay [5], 0.107 µM; in assay [2], 7.93 µM; in assay [4], 3.12 µM.

As to `CCn1cc(/C(=N/Nc2nc3ccccc3s2)C(F)(F)F)c2cc(-c3nc(CN4CCN(C)CC4)cs3)ccc21`, the concentration for half-maximal inhibition (IC50) was found to be 7.43 µM in assay [1]; 0.116 µM in assay [5]; 8.51 µM in assay [2]; 1.45 µM in assay [3]; 2.78 µM in assay [4].

With `CCn1cc(/C(=N/Nc2nc(-c3ccc(F)cc3)c(C#N)s2)C(F)(F)F)c2cc(-c3nc(CN4CCCC4)cs3)ccc21`, the IC50 in assay [1] was greater than 15 µM; in assay [5], 1.31 µM; in assay [2], 6.31 µM; in assay [3], 2.37 µM; in assay [4], 2.85 µM.

Turning to `CCc1nc2c(C)cc(N3CCN(CC(=O)N4CC(O)C4)CC3)cn2c1N(C)c1nc(-c2ccc(F)cc2)c(C#N)s1` [ZIRITAXESTAT], the IC50 in assay [1] is greater than 15 µM; in assay [2], greater than 15 µM; in assay [3], 6.27 µM; in assay [4], 8.32 µM.
